The text below walks through data of US8012945B2, “Phage antibodies to radiation-inducible neoantigens” (Vanderbilt University, priority 2001, dated 2011).

Assay [1] concerns the target T1, GP-IIb/IIIa receptors on activated platelets (Homo sapiens, UniProt P05106+P08514).
T1 construct: endogenous in cells; host or cells: platelets in irradiated tumours of patients (in vivo imaging)
The experiment in a line: Clinical trial of x-ray-guided delivery, gamma camera/SPECT imaging of ^99mTc-labeled biapcitide. The class given is in vivo. Here is the method:
Biapcitide (ACUTECT® available from Diatide, Inc., Londonderry, N.H., United States of America) is a synthetic peptide that binds to GP-IIb/IIIa receptors on activated platelets (Hawiger et al., 1989; Hawiger & Timmons, 1992). Biapcitide was labeled with ^99mTc in accordance with a protocol provided by Diatide Inc.
Reconstituted ^99mTc-labeled biapcitide was administered to patients at a dose of 100 mcg of biapcitide radiolabeled with 10 millicuries (mCi) of ^99mTc. […] Patients were then treated with 10 Gy or more. Patients underwent gamma camera imaging prior to irradiation and 24 hours following irradiation. Following planar image acquisition, those patients showing uptake in irradiated tumors underwent tomographic imaging using SPECT and repeat imaging at 24 hours. Patients showing no uptake on planer images during this 24-hour time frame had no further imaging.
Patients were treated with X-irradiation ranging from 4 to 18 MV photon using external beam linear accelerator at Vanderbilt University. Appropriate blocks, wedges and bolus to deliver adequate dose to the planned target volume was utilized. The site of irradiation, treatment intent and normal tissue considerations determined the radiation dosage and volume. When stereotactic radiosurgery was used, the dose was prescribed to the tumor periphery.
Image Analysis. Image acquisition consisted of both planar and single photon emission computed tomography (SPECT) studies. […] The spatial distribution of […] within the planar image was measured using region of interest (ROI) analysis. […] The rationale for using ROIs with different dimensions is to be able to quantify image counts while at the same time isolating any possible influence of ROI size on the results. […] Background counts was determined based on ROI analysis of a separate planar acquisition performed in the absence of a radioactive source.
Three-dimensional nuclear medicine SPECT examinations were performed using the same dual-head gamma camera system. […] SPECT tumor-to-background ratios were computed using quantitative ROI techniques identical to the planar studies.

Assay [2] concerns B16F0 tumors. As to the kind of experiment: Biotinylated dodecapeptide binding in B16F0 hind limb tumors, Avidin-FITC staining. Type of assay: in vivo, mice. The source says:
Observations. The peptide sequence within fibrinogen that binds to the activated GPIIb/IIIa receptor is the dodecapeptide […] (SEQ ID NO: 16). To determine whether […] (SEQ ID NO: 16) binds in irradiated tumors, applicant utilized the peptide […] (SEQ ID NO: 16) linked to biotin by a serine-glycine linker ([…]-SGSGSK-biotin; SEQ ID NO: 30). This peptide was synthesized in the Vanderbilt University Peptide Core Lab and biotinylated at the carboxyl terminus. The resulting […]-SGSGSK-biotin (SEQ ID NO: 30) was administered by tail vein injection into tumor bearing mice. B16F0 tumors in the hind limb were treated with sham irradiation (control), 4 Gy irradiation followed by […]-SGSGSK-biotin (SEQ ID NO: 30) injection, or […]-SGSGSK-biotin (SEQ ID NO: 30) followed by tumor irradiation (4 Gy). Tumors were frozen at 4 hours and sectioned for fluorescence staining. Avidin-FITC was incubated with tumor sections and imaged by UV microscopy.

Assay [3] addresses T2, α2bβ3 receptor (Mus musculus, UniProt O54890+Q9QUM0).
T2 construct: from tissue; host or cells: irradiated tumours (blood vessels and platelets) in living mice
T2 sequence (Q9QUM0 32-1033): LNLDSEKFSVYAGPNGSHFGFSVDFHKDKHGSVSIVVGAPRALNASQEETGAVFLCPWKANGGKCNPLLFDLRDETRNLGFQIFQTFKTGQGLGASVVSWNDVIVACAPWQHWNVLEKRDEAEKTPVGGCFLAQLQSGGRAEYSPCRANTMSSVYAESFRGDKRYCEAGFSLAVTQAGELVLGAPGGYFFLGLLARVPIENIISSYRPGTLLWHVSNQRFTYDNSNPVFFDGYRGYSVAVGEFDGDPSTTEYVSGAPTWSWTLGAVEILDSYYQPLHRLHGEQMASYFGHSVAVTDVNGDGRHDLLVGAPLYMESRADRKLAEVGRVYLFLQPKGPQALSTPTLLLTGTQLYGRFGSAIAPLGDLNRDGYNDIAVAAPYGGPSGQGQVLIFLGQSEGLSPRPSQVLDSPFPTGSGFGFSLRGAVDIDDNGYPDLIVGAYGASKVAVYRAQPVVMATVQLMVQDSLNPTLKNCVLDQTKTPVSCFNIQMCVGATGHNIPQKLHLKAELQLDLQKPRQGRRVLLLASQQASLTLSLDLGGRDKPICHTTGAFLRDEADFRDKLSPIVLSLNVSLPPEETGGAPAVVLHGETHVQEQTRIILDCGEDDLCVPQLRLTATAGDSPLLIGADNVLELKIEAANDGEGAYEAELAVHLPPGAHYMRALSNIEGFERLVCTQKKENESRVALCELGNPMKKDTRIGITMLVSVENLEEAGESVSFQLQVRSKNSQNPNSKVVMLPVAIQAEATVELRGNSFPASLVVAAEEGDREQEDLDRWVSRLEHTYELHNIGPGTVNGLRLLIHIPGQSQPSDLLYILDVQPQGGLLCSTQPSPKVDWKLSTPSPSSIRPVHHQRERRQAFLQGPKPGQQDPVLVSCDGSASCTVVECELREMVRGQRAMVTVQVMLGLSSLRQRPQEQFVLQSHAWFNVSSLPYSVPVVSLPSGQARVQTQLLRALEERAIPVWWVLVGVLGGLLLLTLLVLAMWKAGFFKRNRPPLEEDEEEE
T2 sequence (O54890 26-787): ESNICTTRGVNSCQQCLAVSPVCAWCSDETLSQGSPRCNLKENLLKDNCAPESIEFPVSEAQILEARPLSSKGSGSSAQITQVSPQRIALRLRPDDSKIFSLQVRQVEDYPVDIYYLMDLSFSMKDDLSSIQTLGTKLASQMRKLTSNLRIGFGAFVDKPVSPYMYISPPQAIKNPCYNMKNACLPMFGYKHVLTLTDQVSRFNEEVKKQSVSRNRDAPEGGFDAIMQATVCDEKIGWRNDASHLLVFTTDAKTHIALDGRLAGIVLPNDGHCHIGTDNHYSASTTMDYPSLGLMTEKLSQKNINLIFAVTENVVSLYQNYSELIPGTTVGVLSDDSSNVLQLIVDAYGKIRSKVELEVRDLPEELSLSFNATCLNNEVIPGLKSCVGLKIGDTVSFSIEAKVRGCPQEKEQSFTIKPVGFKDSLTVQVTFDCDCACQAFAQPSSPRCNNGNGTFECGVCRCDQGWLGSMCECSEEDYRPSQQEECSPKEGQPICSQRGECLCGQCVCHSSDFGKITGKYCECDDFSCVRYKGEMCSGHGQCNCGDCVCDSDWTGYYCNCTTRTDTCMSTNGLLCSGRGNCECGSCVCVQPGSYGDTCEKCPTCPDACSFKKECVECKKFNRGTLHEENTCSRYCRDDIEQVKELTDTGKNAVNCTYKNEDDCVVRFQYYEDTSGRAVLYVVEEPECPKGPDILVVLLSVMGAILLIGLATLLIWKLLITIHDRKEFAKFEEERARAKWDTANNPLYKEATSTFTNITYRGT
The experiment in a line: Recombinant phage binding in irradiated tumors after blocking antibody, plaque formation. Conditions: phage quantified by plaque formation. The class given is in vivo. Here is the method:
The anti-[…]2b[…]3 monoclonal antibody was administered by tail vein to determine whether this receptor is required for recombinant phage binding in irradiated tumors. Phage encoding […] (SEQ ID NO: 5) on the capsid protein were injected immediately after blocking antibody or control antibody. Phage were recovered from the tumor and controls organs and quantified by plaque formation. Radiation induced a 4-fold increase in phage binding in tumor. […] Thus, the tumor binding activity of targeting peptide […] (SEQ ID NO: 5) is dependent on its interaction with the α2bβ3 receptor.

T1 sequence (P08514 32-887 limits assumed): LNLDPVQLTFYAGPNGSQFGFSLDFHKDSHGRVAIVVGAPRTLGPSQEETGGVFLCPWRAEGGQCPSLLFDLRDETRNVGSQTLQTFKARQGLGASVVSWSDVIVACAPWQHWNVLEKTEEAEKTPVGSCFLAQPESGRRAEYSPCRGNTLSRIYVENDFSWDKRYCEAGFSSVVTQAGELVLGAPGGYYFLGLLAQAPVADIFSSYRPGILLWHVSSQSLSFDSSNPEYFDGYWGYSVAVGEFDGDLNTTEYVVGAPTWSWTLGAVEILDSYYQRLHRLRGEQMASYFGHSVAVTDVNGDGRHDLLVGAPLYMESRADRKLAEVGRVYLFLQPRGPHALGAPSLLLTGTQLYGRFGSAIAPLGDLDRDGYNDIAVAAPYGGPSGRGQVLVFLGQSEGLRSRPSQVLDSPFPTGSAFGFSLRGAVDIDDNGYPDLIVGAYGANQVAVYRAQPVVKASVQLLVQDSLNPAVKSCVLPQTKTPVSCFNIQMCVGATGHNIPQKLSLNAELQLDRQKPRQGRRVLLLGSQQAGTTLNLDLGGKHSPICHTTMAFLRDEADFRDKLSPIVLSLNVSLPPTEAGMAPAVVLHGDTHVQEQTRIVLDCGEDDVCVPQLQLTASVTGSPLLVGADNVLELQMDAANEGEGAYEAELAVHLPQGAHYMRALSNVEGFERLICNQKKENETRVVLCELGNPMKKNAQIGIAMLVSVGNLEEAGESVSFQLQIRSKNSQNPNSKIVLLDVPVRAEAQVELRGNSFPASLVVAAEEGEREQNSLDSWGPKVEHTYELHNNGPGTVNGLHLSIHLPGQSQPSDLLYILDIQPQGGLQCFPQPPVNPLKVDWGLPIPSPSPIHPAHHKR
T1 sequence (P08514 891-1039 partner limits assumed): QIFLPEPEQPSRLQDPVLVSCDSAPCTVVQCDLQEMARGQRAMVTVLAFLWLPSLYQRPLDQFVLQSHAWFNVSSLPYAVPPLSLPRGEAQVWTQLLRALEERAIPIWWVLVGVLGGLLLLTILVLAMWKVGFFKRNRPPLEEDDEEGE
T1 sequence (P05106 27-788): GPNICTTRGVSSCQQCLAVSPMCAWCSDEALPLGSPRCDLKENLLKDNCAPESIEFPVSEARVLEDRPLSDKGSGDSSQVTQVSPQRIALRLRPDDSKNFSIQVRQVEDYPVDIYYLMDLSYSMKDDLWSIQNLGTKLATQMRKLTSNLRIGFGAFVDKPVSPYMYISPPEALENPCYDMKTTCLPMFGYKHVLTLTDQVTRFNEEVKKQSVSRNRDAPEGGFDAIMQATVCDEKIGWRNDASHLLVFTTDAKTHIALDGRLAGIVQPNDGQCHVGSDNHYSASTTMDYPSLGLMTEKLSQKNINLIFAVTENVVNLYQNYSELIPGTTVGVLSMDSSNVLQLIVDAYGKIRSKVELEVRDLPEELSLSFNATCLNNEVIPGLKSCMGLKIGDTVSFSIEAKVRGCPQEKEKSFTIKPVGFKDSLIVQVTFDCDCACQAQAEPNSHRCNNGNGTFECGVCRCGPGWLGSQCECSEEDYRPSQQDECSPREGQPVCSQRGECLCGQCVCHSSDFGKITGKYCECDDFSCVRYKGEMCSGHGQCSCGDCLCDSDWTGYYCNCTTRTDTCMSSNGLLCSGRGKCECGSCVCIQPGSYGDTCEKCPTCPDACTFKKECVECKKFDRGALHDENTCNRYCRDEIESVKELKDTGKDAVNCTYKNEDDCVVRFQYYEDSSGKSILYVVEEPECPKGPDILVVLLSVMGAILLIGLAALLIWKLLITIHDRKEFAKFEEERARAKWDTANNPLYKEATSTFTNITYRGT

As to Biapcitide [^99mTc-labeled biapticide], the tumor binding in assay [1] (administered immediately prior to radiation) is 4 of 4. Besides, in assay [1] (administered within one hour following radiation), the “localization to the tumor” value is on record as “failed to show localization”. In assay [1] (second neoplasms not treated with radiation, two patients), the “binding in untreated tumor” value is “not observed”.

Consider “HHLGGAKQAGDV (Artificial peptide ligand number 16) [dodecapeptide, segment of the γ subunit of fibrinogen]”, for which the “efficiency of schedule of administration” value in assay [2] (administration prior to irradiation compared to radiation before administration) is reported as “administration prior to irradiation is a more efficient schedule”.

As for HHLGGAKQAGDV-SGSGSK-biotin, the “Avidin-FITC staining of tumor sections, irradiated tumors” value in assay [2] (4 Gy, tumors frozen at 4 hours) is listed as “Avidin-FITC stained blood vessels were observed”. Besides, in assay [2] (sham irradiation), the “Avidin-FITC staining of tumor sections, untreated control” value is “not in untreated control”.

For the substance “SLRGDGSSV (phage-displayed; Artificial peptide ligand number 5)”, the “radiation-induced increase in phage binding in tumor” value in assay [3] was 4 fold.
